Here are results for ten compounds from patent publication US5607937A, “Piperazides of substituted phenylalanine derivatives as thrombin inhibitors” (priority 1993, dated 1997).

One may read the Ki as the equilibrium dissociation constant of an inhibitor or competing ligand from its target.

The target of one assay is glandular kallikrein (Sus scrofa, UniProt P00752). Kind of assay: inhibition of glandular kallikrein, dissociation constant Ki.
Another assay concerns the target plasma kallikrein (Homo sapiens, UniProt P03952). The assay can be described thus: inhibition of plasma kallikrein, dissociation constant Ki.
Another assay has as its target T1, factor XIIa (Homo sapiens, UniProt P00748).
T1 sequence (P00748 373-615 limits assumed): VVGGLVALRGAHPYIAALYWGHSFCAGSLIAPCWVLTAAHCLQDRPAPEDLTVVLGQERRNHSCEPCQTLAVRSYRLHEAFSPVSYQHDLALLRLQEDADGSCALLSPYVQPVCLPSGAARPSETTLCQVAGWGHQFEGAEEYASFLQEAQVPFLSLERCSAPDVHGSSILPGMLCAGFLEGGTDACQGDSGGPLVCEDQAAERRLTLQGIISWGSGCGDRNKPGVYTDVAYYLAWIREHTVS
Kind of assay: inhibition of factor XIIa, dissociation constant Ki.

A further assay addresses plasmin (Homo sapiens, UniProt P00747). Kind of assay: inhibition of plasmin, dissociation constant Ki.
The next assay addresses tPA (Homo sapiens, UniProt P00750). Kind of assay: inhibition of tPA, dissociation constant Ki.
In a further assay the target is thrombin (Bos taurus, UniProt P00735). The assay can be described thus: biochemical.
The target of the next assay is factor Xa (Bos taurus, UniProt P00743). Kind of assay: inhibition of factor Xa, dissociation constant Ki. The note with it: Table 1. The format is biochemical. On the procedure: (§1) The biological activity of the compounds of the present invention was determined in vitro as well as in vivo.
Sequence of factor Xa (P00743 234-492 limits assumed): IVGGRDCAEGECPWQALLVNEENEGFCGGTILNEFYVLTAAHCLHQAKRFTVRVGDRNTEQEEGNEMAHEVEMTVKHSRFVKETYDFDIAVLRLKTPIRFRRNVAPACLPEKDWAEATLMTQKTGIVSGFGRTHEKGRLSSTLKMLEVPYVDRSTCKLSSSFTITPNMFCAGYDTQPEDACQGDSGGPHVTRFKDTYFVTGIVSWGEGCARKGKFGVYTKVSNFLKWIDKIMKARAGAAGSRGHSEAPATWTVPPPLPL
Sequence of factor Xa (P00743 41-180 partner limits assumed): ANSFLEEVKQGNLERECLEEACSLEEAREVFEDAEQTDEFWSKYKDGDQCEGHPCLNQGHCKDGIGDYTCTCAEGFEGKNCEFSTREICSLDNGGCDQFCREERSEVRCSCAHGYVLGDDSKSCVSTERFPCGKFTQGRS
The target of the next assay is T2, trypsin (Bos taurus, UniProt P00760).
T2 sequence (P00760 24-246): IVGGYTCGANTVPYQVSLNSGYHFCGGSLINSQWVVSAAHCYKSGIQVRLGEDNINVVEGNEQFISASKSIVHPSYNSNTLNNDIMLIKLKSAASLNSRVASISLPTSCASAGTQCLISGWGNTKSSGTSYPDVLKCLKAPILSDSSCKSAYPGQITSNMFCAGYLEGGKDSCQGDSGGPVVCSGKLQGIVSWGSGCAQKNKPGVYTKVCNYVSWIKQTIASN
The assay can be described thus: inhibition of trypsin, dissociation constant Ki. In kind it is biochemical. Also on record: thrombin and the related enzymes trypsin, plasmin, factor Xa, factor XIIa. To be noted: Table 1; read-out: Ki, Trypsin. As to the method:
as §1

Read-outs that look alike come from different tables or passages of the source.

Sequence of plasmin (P00747 581-810 limits assumed): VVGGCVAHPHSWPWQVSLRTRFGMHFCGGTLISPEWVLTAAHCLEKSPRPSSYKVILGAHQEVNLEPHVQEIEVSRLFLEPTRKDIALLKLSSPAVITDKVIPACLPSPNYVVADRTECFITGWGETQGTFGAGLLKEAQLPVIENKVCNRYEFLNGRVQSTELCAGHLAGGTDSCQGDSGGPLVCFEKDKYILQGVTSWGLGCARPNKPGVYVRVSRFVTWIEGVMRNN
Sequence of plasmin (P00747 97-580 partner limits assumed): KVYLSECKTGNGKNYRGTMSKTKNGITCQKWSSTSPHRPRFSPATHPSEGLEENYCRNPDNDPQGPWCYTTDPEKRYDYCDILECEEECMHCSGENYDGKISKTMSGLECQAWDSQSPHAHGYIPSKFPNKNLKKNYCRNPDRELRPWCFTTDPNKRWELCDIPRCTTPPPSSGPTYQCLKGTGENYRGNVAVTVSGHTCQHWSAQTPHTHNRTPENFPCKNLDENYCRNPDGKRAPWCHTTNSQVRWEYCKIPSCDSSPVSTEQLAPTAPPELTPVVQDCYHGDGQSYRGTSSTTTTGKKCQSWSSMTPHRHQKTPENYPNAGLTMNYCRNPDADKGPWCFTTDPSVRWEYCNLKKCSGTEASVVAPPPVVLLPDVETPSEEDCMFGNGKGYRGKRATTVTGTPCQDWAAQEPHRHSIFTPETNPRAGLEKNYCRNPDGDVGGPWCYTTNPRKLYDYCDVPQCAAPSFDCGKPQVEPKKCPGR
Sequence of glandular kallikrein (P00752 8-246): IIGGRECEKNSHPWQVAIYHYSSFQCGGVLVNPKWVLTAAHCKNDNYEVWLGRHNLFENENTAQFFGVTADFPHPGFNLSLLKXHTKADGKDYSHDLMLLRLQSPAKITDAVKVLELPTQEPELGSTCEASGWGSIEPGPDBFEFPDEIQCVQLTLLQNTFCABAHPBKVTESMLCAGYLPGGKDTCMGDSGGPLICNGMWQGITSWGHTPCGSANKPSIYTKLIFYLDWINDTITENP
Sequence of tPA (P00750 36-562): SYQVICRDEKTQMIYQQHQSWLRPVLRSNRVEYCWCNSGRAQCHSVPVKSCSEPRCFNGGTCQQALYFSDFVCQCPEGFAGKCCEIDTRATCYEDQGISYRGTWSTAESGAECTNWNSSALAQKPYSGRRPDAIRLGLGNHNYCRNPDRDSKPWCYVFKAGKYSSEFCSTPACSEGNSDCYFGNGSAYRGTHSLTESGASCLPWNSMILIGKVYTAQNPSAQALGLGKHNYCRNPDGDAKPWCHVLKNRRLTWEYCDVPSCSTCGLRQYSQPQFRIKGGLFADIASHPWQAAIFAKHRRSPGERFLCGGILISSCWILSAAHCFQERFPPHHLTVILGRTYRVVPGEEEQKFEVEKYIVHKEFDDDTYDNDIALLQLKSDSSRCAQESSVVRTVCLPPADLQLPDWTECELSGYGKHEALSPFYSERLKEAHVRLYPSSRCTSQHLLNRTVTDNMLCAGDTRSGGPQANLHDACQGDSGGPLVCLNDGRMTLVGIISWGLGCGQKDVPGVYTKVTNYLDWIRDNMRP
Sequence of plasma kallikrein (P03952 391-638 limits assumed, species assumed): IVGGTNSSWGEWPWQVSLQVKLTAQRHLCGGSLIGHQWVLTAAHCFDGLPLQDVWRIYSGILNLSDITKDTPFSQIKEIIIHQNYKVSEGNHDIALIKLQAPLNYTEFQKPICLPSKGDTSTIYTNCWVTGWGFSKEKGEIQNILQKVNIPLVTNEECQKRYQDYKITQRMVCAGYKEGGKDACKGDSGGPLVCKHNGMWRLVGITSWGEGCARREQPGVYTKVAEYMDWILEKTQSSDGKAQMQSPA
Sequence of plasma kallikrein (P03952 20-390 partner limits assumed, species assumed): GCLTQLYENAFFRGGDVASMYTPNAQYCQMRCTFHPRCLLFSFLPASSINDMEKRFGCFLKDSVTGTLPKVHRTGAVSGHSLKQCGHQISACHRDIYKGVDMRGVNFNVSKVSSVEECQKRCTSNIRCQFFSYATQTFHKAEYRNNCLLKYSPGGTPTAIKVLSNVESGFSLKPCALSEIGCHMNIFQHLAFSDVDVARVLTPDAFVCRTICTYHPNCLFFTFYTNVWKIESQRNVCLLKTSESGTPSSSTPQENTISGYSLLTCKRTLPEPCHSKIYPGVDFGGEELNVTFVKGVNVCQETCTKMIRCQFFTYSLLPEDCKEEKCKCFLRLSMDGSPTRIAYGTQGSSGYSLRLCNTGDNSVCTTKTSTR

Take `N=C(N)c1cccc(CC(NS(=O)(=O)c2ccc3ccccc3c2)C(=O)N2CCN(C(=O)C3CCCCC3)CC2)c1` (stereo not drawn) [AMD 2-Naph CO-cHex]: the Ki was greater than 1000 µM on glandular kallikrein; 79 µM at plasma kallikrein; 350 µM on factor XIIa; 10.2 µM at plasmin (read-out: Ki, Plasmin, Table 1); greater than 1000 µM on tPA.

`Cc1cc(C)c(S(=O)(=O)N2CCN(C(=O)C(Cc3cccc(C(=N)N)c3)NS(=O)(=O)c3ccc4ccccc4c3)CC2)c(C)c1` (stereo not drawn) [AMD 2-Naph SO2 -TMeP]: the Ki at glandular kallikrein was greater than 1000 µM; at thrombin, 0.075 µM; at factor Xa it was 13 µM; on plasma kallikrein, 1 µM; on factor XIIa, 690 µM; on plasmin, 31 µM. Besides, the values for the Ki at trypsin and at tPA were 0.59 µM and greater than 1000 µM, respectively.

Turning to `N=C(N)c1cccc(CC(NS(=O)(=O)c2ccc3ccccc3c2)C(=O)N2CCN(C(=O)C3CC3)CC2)c1` (stereo not drawn) [AMD 2-Naph CO-cPr], the Ki at glandular kallikrein was greater than 1000 µM; at thrombin, 0.14 µM; on factor Xa it was 45 µM; at plasma kallikrein, 22 µM; at factor XIIa, 540 µM; at plasmin, 5.1 µM. Further, the Ki at trypsin is 0.044 µM; at tPA, 170 µM.

Regarding `CC(C)C(=O)N1CCN(C(=O)C(Cc2cccc(C(=N)N)c2)NS(=O)(=O)c2ccc3ccccc3c2)CC1` (stereo not drawn) [AMD 2-Naph COCH(Me)2], the Ki at glandular kallikrein was greater than 1000 µM; at thrombin, 0.26 µM; on factor Xa it was 84 µM; on plasma kallikrein it was 50 µM; on factor XIIa, greater than 1000 µM; at plasmin it was 9.3 µM. The Ki on trypsin came to 0.063 µM; at tPA it was 440 µM.

In the case of `N=C(N)c1cccc(CC(NS(=O)(=O)c2ccc3ccccc3c2)C(=O)N2CCN(C(=O)Cc3cccs3)CC2)c1` (stereo not drawn) [AMD 2-Naph drawing 11], the Ki at glandular kallikrein was greater than 1000 µM; on thrombin it was 2.5 µM; on factor Xa it was 16 µM; on plasma kallikrein it was 19 µM; at factor XIIa it was 72 µM; at plasmin, 2.7 µM. In addition, the Ki on trypsin was 0.081 µM; on tPA it was 170 µM.

As to `N=C(N)c1cccc(CC(NS(=O)(=O)c2ccc3ccccc3c2)C(=O)N2CCN(c3ccccn3)CC2)c1` (stereo not drawn) [AMD 2-Naph 2-Pyl], the Ki at glandular kallikrein was greater than 1000 µM; on thrombin, 0.52 µM; on factor Xa, 12 µM; on plasma kallikrein it was 19 µM; on factor XIIa it was 84 µM; at plasmin, 3.3 µM. For the same compound, the Ki on trypsin is 0.035 µM; at tPA, greater than 1000 µM.

Consider `CC(=O)N1CCN(C(=O)C(Cc2cccc(C(=N)N)c2)NS(=O)(=O)c2c(C(C)C)cc(C(C)C)cc2C(C)C)CC1` (stereo not drawn) [AMD TIPP Ac], for which the Ki at glandular kallikrein was 200 µM; on thrombin, 0.098 µM; on factor Xa, 4 µM; at plasma kallikrein, 7.3 µM; on factor XIIa it was 47 µM; on plasmin (read-out: Ki, Plasmin, Table 1) it was 3 µM. In addition, the Ki on trypsin was 0.22 µM; at tPA, 17 µM.

For the compound `N=C(N)c1cccc(CC(NS(=O)(=O)c2ccc3ccccc3c2)C(=O)N2CCN(C(=O)C3CCC3)CC2)c1` (stereo not drawn) [AMD 2-Naph CO-cBu], the Ki at glandular kallikrein is greater than 1000 µM; on thrombin, 2.5 µM; on plasma kallikrein it was 56 µM; at factor XIIa, greater than 1000 µM; at plasmin, 7.6 µM; on trypsin, 0.026 µM. The same compound displayed a Ki at tPA greater than 1000 µM.

As to `CS(=O)(=O)N1CCN(C(=O)C(Cc2cccc(C(=N)N)c2)NS(=O)(=O)c2ccc3ccccc3c2)CC1` (stereo not drawn) [AMD 2-Naph SO2 Me], the Ki on glandular kallikrein is greater than 1000 µM; on factor Xa, 22 µM; on plasma kallikrein, 77 µM; at factor XIIa, 86 µM; on plasmin (read-out: Ki, Plasmin, Table 1) it was 12 µM; at tPA, greater than 1000 µM.

On to `N=C(N)c1cccc(C[C@H](NS(=O)(=O)c2ccc3ccccc3c2)C(=O)N2CCN(C=O)CC2)c1` [AMD(L) 2-Naph For], for which the Ki was greater than 1000 µM on glandular kallikrein; 0.011 µM on thrombin; 3.6 µM at plasma kallikrein; 42 µM at factor XIIa; 0.073 µM at trypsin; 120 µM at tPA.
